One test has as its system 4T1. In words: RPARPAR phage binding to cultured cells at 4° C. The format is cell-based. Conditions: 4T1 breast cancer. The procedure:
(§1) FIG. 15A: Binding of RPARPAR (SEQ ID NO:2) phage to the cultured cells at 4° C. in vitro. FIG. 15B: Binding of RPARPAR (SEQ ID NO:2) phage to primary cell suspensions of mouse organs at 4° C. ex vivo. FIGS. 15C and 15D: Tissue distribution of intravenously injected RPARPAR (SEQ ID NO:2) phage after 20 minutes of circulation time. FIG. 15C: Phage was quantified by titration, tissue binding is expressed as fold G7 phage. Statistical analysis was performed by Student's t-test (c). n=3; error bars indicate s.d.; double asterisk, p<0.01, triple asterisk, p<0.001. FIG. 15D (panels d and e): Immunofluorescence localization of T7 phage (light coloring) in lung sections of mice injected intravenously with RPARPAR (SEQ ID NO:2) (d) or G7 (e) phage. Widespread immunoreactivity is present in the lungs of mice injected with RPARPAR (SEQ ID NO:2) (arrowheads in d) but not G7 (with occasional labeling seen in vessels, arrows in e). Scale bar: 50 μm.
(§2) Phage display. For in vivo phage display, mice were injected intravenously with 10^10 plaque-forming units (pfu) of T7 phage followed by perfusion of the circulatory system and determination of the bound phage in target organs by titration. For cell binding studies on cultured cells (in vitro display) and organ-derived cell suspensions (ex vivo display), the cells were incubated with 10^9 pfu of phage at 4° C., washed, lysed, and quantified by titration. Incubation at 37° C. followed by low pH wash (glycine-HCl, pH 2.5) was used to assess the amount of internalized phage.
(§3) For biopanning and phage binding studies (Hoffman, J. A. et al., 2004), cultured cells were grown to confluence and harvested with trypsin and mouse organs were dissociated using Medimachine (BD Biosciences, San Jose, CA). To measure phage binding, 10^6 cells in binding buffer (DMEM containing 1% BSA) were incubated with 10^9 pfu/ml of T7 phage for 1 hour at 4° C. The cells were washed 4 times with the binding buffer, lysed in LB bacterial growth medium containing 1% NP-40, and titrated. Phage internalization assays used the same procedure, except that the cells were incubated with the phage at 37° C., and that an acidic buffer (500 mM sodium chloride, 0.1 M glycine, 1% BSA, pH 2.5) was used instead of binding buffer in the second wash.

A further test concerns PDAC1.3. In words: RPARPAR phage binding to cultured cells at 4° C. Conditions: PDAC1.3 pancreatic carcinoma. Type of test: cell-based. The method, then:
as §1, §2, §3

The test system of a further test is MIA PaCa-2. In words: RPARPAR phage binding to cultured cells at 4° C. Type of test: cell-based. Conditions: MIA PaCa-2 pancreatic carcinoma. The procedure:
as §1, §2, §3

For test [1], the system named is human umbilical vein endothelial cells (HUVEC). Briefly: RPARPAR phage binding to cultured cells at 4° C. The format is cell-based. The procedure: as §1, §2, §3
The test system of test [2] is murine vascular endothelial cells (F2). In words: RPARPAR phage binding to cultured cells at 4° C. The format is cell-based. The procedure:
as §1, §2, §3

Test [3] deals with MDA-MB-435 human cancer cells. Briefly: RPARPAR phage binding to cultured cells at 4° C. Type of test: cell-based. The procedure:
as §1, §2, §3

The test system of the next test is M21 melanoma cells. Briefly: RPARPAR phage binding to cultured cells at 4° C. Type of test: cell-based. Conditions: non-transfected M21. The procedure: as §1, §2, §3
The subject of the next test is B16F10. In words: RPARPAR phage binding to cultured cells at 4° C. The format is cell-based. Conditions: B16F10 melanoma cells. The procedure:
as §1, §2, §3

A further test concerns the target T1, wild-type NRP-1 (Homo sapiens, UniProt O14786).
T1 construct: expressed in transfected cells; host or cells: M21 melanoma cells, transient transfection with lipofectamine; pcDNA3.1(+) construct, gift of Dr. Michael Klagsbrun
In words: Phage binding and internalization in M21 melanoma cells transiently transfected with wild-type NRP-1. The format is cell-based. The method, then:
FIGS. 18A-18C show the identification and validation of NRP-1 as the CendR receptor. FIG. 18A: Affinity chromatography of proteins interacting with RPARPAR (SEQ ID NO: 2) peptide. PPC-1 tumor tissue was extracted with a 200 mM glucopyranoside buffer, and the extract was incubated with RPARPAR-coated (SEQ ID NO:2) beads, followed by extensive washes, and elution with 2 mM free RPARPAR (SEQ ID NO:2) peptide. Note appearance of a 130 kDa band, identified by mass spectroscopy as NRP-1, starting in the fraction 3 of the eluate. Upper panel—a silver stained gel, lower panel—an immunoblot with anti-NRP-1 antibody. FIG. 18B: Binding of RPARPAR (SEQ ID NO:2) phage to M21 melanoma cells transiently transfected with wild-type NRP-1 (NRP-1), triple mutant NS346A-E348A-T349A NRP-1 (Mutant NRP-1), or parental pcDNA3.1plasmid (Vector), and to non-transfected M21 cells. FIG. 18C: (c, d), Confocal immunofluorescence images of NRP-1 and RPARPAR (SEQ ID NO:2) T7 phage in PPC-1 cells incubated with phage at 37° C. for 40 minutes (c) and 3 hours (d). The phage and NRP-1 co-localize extensively, but there appears to be a progressive decrease in the overlap (arrowheads in c and d) and appearance of structures positive for the phage only (arrows, d). (e) Immunostaining and confocal imaging of RPARPAR (SEQ ID NO:2) phage and NRP-1 in M21 cells transiently transfected with NRP-1. […]

In a further test the test system is PPC-1 cells. Briefly: Binding and internalization of peptide-coated quantum dots by PPC-1 cells (confocal/fluorescence microscopy). Type of test: cell-based, human. Conditions: excess of RPARPAR-displaying phage.

Entries after “also recorded” stand apart in the source; their conditions may differ.

T1 sequence (O14786 22-923): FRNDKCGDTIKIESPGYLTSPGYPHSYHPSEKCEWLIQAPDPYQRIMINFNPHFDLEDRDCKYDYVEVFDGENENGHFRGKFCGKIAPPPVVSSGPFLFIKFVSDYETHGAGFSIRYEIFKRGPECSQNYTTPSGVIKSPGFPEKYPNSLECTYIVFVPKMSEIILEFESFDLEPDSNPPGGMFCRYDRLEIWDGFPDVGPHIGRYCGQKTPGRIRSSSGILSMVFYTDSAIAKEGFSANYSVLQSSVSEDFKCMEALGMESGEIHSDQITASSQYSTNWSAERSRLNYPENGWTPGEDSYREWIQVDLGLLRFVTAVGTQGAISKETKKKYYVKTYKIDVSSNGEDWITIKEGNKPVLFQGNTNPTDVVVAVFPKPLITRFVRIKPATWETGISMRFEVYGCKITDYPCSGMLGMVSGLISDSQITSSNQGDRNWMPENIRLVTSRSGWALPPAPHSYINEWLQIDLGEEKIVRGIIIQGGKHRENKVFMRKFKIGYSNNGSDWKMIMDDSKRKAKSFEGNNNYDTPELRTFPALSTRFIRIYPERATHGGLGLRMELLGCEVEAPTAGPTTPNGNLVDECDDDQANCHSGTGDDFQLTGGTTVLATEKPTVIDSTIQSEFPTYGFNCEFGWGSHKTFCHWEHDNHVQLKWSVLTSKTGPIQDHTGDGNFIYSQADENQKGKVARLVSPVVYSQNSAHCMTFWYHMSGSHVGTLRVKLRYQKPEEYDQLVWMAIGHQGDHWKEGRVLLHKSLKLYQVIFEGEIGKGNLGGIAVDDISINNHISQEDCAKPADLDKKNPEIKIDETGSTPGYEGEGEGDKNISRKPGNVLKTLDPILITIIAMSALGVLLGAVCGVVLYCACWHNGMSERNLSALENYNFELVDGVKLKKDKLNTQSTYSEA

In the case of RPARPAR [RPARPAR phage], the Phage binding result with 4T1 is “bound”; in the test on PDAC1.3, “bound”; in the test with MIA PaCa-2 it was “bound”; in [1] it was “binding was also seen”; in test [2] it was “binding was also seen”; in [3] it was “bound”. Moreover, the Phage binding result with B16F10 is reported as “bound”. In the test with M21 melanoma cells, the “Phage binding over control phage” value is recorded as “did not bind; also recorded: do not bind nor internalize”. Besides, the “Phage binding and internalization by M21 cells with forced expression of NRP-1” value on wild-type NRP-1 is “capable of binding and internalizing”. Further, in the test on PPC-1 cells, the “Effect of pre-incubation of cells with excess phage on RPARPAR-Q-dot internalization” value was “inhibited”.

The record behind these values is patent US12708673B2, “Methods and compositions related to peptides and proteins with c-terminal elements” (Sanford Burnham Prebys Medical Discovery Institute, priority 2008, dated 2026).
